Read-outs that look alike come from different tables or passages of the source.
What was measured:
[1] = short term placebo controlled trial, PD constipation; cited from earlier work
[2] = target: α-synuclein protein (Homo sapiens, UniProt P37840); conditions: cited from earlier work
[3] = Phase 2(b) study, aminosterol dosage and body position, Parkinson's disease patients
[4] = intravenous administration; cited from earlier work
[5] = Absorption / oral bioavailability of aminosterols; assay type: in vivo; conditions: oral administration
[6] = tested on: mouse stomach mRNA; assay: Oral dosing of squalamine (ENT-01) in old mice, stomach transcriptome by RNAseq; assay type: in vivo
Excerpt: The present example evaluated the impact of oral dosing of squalamine (ENT-01) on the gastrointestinal (GI) tissue of old mice (78 weeks). […] After 2 weeks of dosing the animals were euthanized, and the GI tracts sectioned into stomach, duodenum, jejunum, ileum, caecum, colon, and rectum. The stomach tissues were then sent for histology, and the transcriptomes analyzed by RNAseq.
The dosing schedule used to determine the effect of orally administered squalamine and MSI-1436 on the GI tracts of young and old mice was as follows. Male C57Bl/6 mice, aged 20 and 78 weeks, were obtained from Jackson labs. Animals were exposed to 12 hr light dark cycles and provided Teklad standard mouse diet and water ad lib.
Animals were dosed once daily by oral gavage in the morning for a total of 14 days. Animals were fasted 3-4 hours prior to dosing and 1 hour following. The test article was dissolved in 0.5% hydroxypropylcellulose in water. On day 15 the animals were euthanized by CO2 asphyxiation, necropsied, and tissues prepared for histology and RNAseq analysis.
The GI tracts of the animals were sectioned into stomach, duodenum, jejunum, ileum, caecum, colon, and rectum. The tissues were then sent for histology, and the transcriptomes analyzed by RNAseq.

[7] = Phase 2a (n = 34), drug related adverse events; assay type: in vivo, human
[8] = orally administered; mice with constipation due to overexpression of human αS; cited from earlier work
[9] = human, in vivo, 25 days
[10] = 15 patients with assessable MMSE improvement

## CCCCC(F)(F)[C@@]1(O)CC[C@H]2[C@@H](CC(=O)[C@@H]2CCCCCCC(=O)O)O1 [Lubiprostone]
[1]
  share of treated in whom effective: about 50%

## CC(C)[C@@H](CC[C@@H](C)[C@H]1CC[C@H]2[C@@H]3[C@H](O)C[C@H]4C[C@@H](NCCCNCCCCNCCCN)CC[C@]4(C)[C@H]3CC[C@]12C)OS(=O)(=O)O [aminosterol 1436]
[2]
  initiation of aggregation of the α-synuclein protein: inhibit the initiation of aggregation

## CC(C)[C@@H](CC[C@@H](C)[C@H]1CC[C@H]2[C@@H]3[C@H](O)C[C@H]4C[C@@H](NCCCNCCCCN)CC[C@]4(C)[C@H]3CC[C@]12C)OS(=O)(=O)O [squalamine]
[3]; [10]
  patients with MMSE improvement of 3 or more points: 33%
  patients with MMSE improvement of 4 or more points: 20%
  patients with MMSE improvement of 5 or more points: 13%
  patients with MMSE improvement of 6 or more points: 1/15
[3]; 29 patients with assessable bowel movements, 75 or 150 mg/daily, 25 days
  patients responding to drug treatment (increase in CSBM): About 80%
[3]; Phase 2(b), PD patients
  hallucinations: reduction in hallucinations
  sleep fragmentation: decrease in sleep fragmentation
  total sleep time: increase in total sleep time
[3]; dose taken sitting or standing, compared to lying down
  bowel function, MMSE scores, amount and quality of sleep, other neurological indices (UPDRS): qualitative improvements
[3]; n = 47
  Unrelated adverse event Flu-like symptoms*, Mild, %: (6.3) %
[4]
  gastrointestinal motility: not associated with increased gastrointestinal motility
[5]
  absorption in blood: less than 0.3%
[6]; old + Ent-01 vs old mice
  Corneodesmosin mRNA % increase: 94%
  Cornifelin mRNA % increase: 261%
  Dermokine mRNA % increase: 290%
  Filaggrin mRNA % increase: 671%
  H19_imprinted_maternally_expressed_transcript mRNA % increase: 656%
  Hornerin mRNA % increase: 253%
  Loricrin mRNA % increase: 381%
  Myoglobin mRNA % increase: 437%
  Sciellin mRNA % increase: 219%
  caspase_14 mRNA % increase: 664%
  collagen_type_XVII_alpha_1 mRNA % increase: 256%
  cystatin_E/M mRNA % increase: 491%
  desmocollin_1 mRNA % increase: 104%
  desmoglein_1_beta mRNA % increase: 184%
  gap_junction_protein_beta_4 mRNA % increase: 470%
  gap_junction_protein_beta_6 mRNA % increase: 455%
  kallikrein_related-peptidase_7_(chymotryptic_stratum mRNA % increase): 847%
  keratin_1 mRNA % increase: 425%
  keratin_10 mRNA % increase: 610%
  keratinocyte_differentiation_associated_protein mRNA % increase: 407%
  keratinocyte_expressed_proline-rich mRNA % increase: 270%
  late_cornified_envelope_1A1 mRNA % increase: 339%
  late_cornified_envelope_1A2 mRNA % increase: 361%
  late_cornified_envelope_1B mRNA % increase: 471%
  late_cornified_envelope_1C mRNA % increase: 338%
  late_cornified_envelope_1E mRNA % increase: 340%
  late_cornified_envelope_1F mRNA % increase: 338%
  late_cornified_envelope_1G mRNA % increase: 197%
  late_cornified_envelope_1H mRNA % increase: 233%
  late_cornified_envelope_1I mRNA % increase: 654%
  late_cornified_envelope_1J mRNA % increase: 296%
  late_cornified_envelope_1L mRNA % increase: 365%
  late_cornified_envelope_1M mRNA % increase: 656%
  late_cornified_envelope_3C mRNA % increase: 130%
  late_cornified_envelope_3E mRNA % increase: 205%
  late_cornified_envelope_3F mRNA % increase: 192%
  lectin_galactose_binding_soluble_7 mRNA % increase: 481%
  myosin_binding_protein_C_slow-type mRNA % increase: 209%
  myosin_heavy_polypeptide_1_skeletal_muscle mRNA % increase: 289%
  myosin_heavy_polypeptide_8_skeletal_muscle mRNA % increase: 371%
  myosin_light_chain_phosphorylatable_fast_skeletal mRNA % increase: 295%
  myosin_light_polypeptide_3 mRNA % increase: 747%
  myozenin_1 mRNA % increase: 524%
  myozenin_2 mRNA % increase: 341%
  titin-cap mRNA % increase: 298%
[6]; old mice after treatment with squalamine
  mRNA levels for all of the genes in Table 4: significant increase
[7]
  Drug related adverse event Diarrhea, Mild, %: (35) %
  Drug related adverse event Diarrhea, Moderate, %: (5.8) %
  Drug related adverse event Diarrhea, Severe, %: (2.9) %
  Drug related adverse event Dizziness, Mild, %: (20.5) %
  Drug related adverse event Dizziness, Moderate, %: (2.9) %
  Drug related adverse event Nausea, Mild, %: (47) %
  Drug related adverse event Nausea, Moderate, %: (2.9) %
  Drug related adverse event Vomiting, Mild, %: (5.8) %
[8]
  gastrointestinal motility: stimulates gastrointestinal motility
[2]
  initiation of aggregation of the α-synuclein protein: inhibit the initiation of aggregation
[9]
  Drug related adverse event Diarrhea, Mild, %: (2.7) %
  Drug related adverse event Diarrhea, Moderate, %: (2.7) %
  Drug related adverse event Diarrhea, Severe, %: (2.7) %
  Drug related adverse event Dizziness, Mild, %: (3) %
  Drug related adverse event Nausea, Mild, %: (6.3) %
  Drug related adverse event Nausea, Moderate, %: (2.7) %
  Drug related adverse event Vomiting, Mild, %: (2.7) %
  Drug related adverse event Vomiting, Moderate, %: (2.7) %
  Unrelated adverse event Contusion*, Mild, %: (2.1) %
  Unrelated adverse event Dizziness, Mild, %: (4.2) %
  Unrelated adverse event Fall*, Mild, %: (4.2) %
  Unrelated adverse event Fall*, Moderate, %: (2.1) %
  Unrelated adverse event Pain*, Mild, %: (2.1) %
  Unrelated adverse event Pain*, Moderate, %: (2.1) %
  Unrelated adverse event Phlebotomy site irritation*, Mild, %: (2.1) %
  Unrelated adverse event Rectal burning, Mild, %: (2.1) %
  Unrelated adverse event Rib fracture*, Mild, %: (2.1) %
  Unrelated adverse event Squamous cell Ca*, Mild, %: (2.1) %
  Unrelated adverse event Syncope*, Moderate, %: (2.1) %
